Results as given in ChEMBL document CHEMBL5705896 (ACS Chem Biol, 2013).
Activity calls are given as the source filed them. The calls are words filed in the database; no cut-off is given here.

What was measured:
[1] = target: Receptor-type tyrosine-protein kinase FLT3 (Homo sapiens) (UniProt P36888); assay: Inhibition of human cytoplasmic domain N-terminal GST tagged FLT3 (564 to 993 end residues) expressed in baculovirus expression system using Srctide as substrate at 10 uM by mobility shift assay relative to control
[2] = target: 5-hydroxytryptamine receptor 2A (Homo sapiens) (UniProt P28223); assay: Inhibition of 5-HT2A receptor (unknown origin) at 10 uM by radioligand binding assay relative to control
[3] = target: Histamine H3 receptor (Homo sapiens, UniProt Q9Y5N1)
[4] = target: Beta-3 adrenergic receptor (Homo sapiens) (UniProt P13945); assay: Inhibition of Beta3receptor (unknown origin) at 10 uM by radioligand binding assay relative to control
[5] = target: Muscarinic acetylcholine receptor M2 (Homo sapiens) (UniProt P08172); assay: Inhibition of M2 receptor (unknown origin) at 10 uM by radioligand binding assay relative to control
[6] = target: Protein kinase C alpha type (Homo sapiens) (UniProt P17252); assay: Inhibition of full length human N-terminal GST tagged PKC alpha (1 to 672 end residues) expressed in baculovirus expression system using PKC as peptide at 10 uM by mobility shift assay relative to control
[7] = target: Insulin-like growth factor 1 receptor (Homo sapiens) (UniProt P08069); assay: Inhibition of human cytoplasmic domain N-terminal GST tagged IGF1R (959 to 1367 end residues) expressed in baculovirus expression system using IRS1 as substrate at 10 uM by mobility shift assay relative to control
[8] = target: Kappa-type opioid receptor (Homo sapiens) (UniProt P41145); assay: Inhibition of KOR (unknown origin) at 10 uM by radioligand binding assay relative to control
[9] = target: Histone-lysine N-methyltransferase SUV39H2 (Homo sapiens, UniProt Q9H5I1); assay: Inhibition of SUV39H2 (unknown origin) using [3H-SAM] as substrate incubated for 1 hr by scintillation proximity assay
[10] = target: Serine/threonine-protein kinase Chk1 (Homo sapiens) (UniProt O14757); assay: Inhibition of full length human N-terminal GST tagged CHK1 (1 to 476 end residues) expressed in baculovirus expression system using chk-tide as substrate at 10 uM by mobility shift assay relative to control
[11] = Toxicity in Swiss albino mouse assessed as drug tolerance at 15 to 150 mg/kg administered as single ip dose measured upto 24 hrs; format: organism-based; conditions: in vivo, dose 15-150 mg/kg
[12] = target: Delta-type opioid receptor (Homo sapiens) (UniProt P41143); assay: Inhibition of DOR (unknown origin) at 10 uM by radioligand binding assay relative to control
[13] = target: Muscarinic acetylcholine receptor M4 (Homo sapiens) (UniProt P08173); assay: Inhibition of M4 receptor (unknown origin) at 10 uM by radioligand binding assay relative to control
[14] = target: 5-hydroxytryptamine receptor 1A (Homo sapiens) (UniProt P08908); assay: Inhibition of 5-HT1A receptor (unknown origin) at 10 uM by radioligand binding assay relative to control
[15] = target: Sigma non-opioid intracellular receptor 1 (Homo sapiens) (UniProt Q99720); assay: Inhibition of Sigma1 receptor (unknown origin) at 10 uM by radioligand binding assay relative to control
[16] = target: 5-hydroxytryptamine receptor 2C (Homo sapiens) (UniProt P28335); assay: Inhibition of 5-HT2C receptor (unknown origin) at 10 uM by radioligand binding assay relative to control
[17] = target: Proto-oncogene tyrosine-protein kinase Src (Homo sapiens) (UniProt P12931); assay: Inhibition of full length human N-terminal GST tagged SRC (1 to 536 end residues) expressed in baculovirus expression system using Srctide as substrate at 10 uM by mobility shift assay relative to control
[18] = target: Mu-type opioid receptor (Homo sapiens) (UniProt P35372); assay: Inhibition of MOR (unknown origin) at 10 uM by radioligand binding assay relative to control
[19] = target: Serine/threonine-protein kinase pim-1 (Homo sapiens) (UniProt P11309); assay: Inhibition of full length human N-terminal his-tagged PIM1 (1 to 313 end residues) expressed in baculovirus expression system using S6K2 peptide as substrate at 10 uM by mobility shift assay relative to control
[20] = test system: DB; assay: Antiproliferative activity against human DB cells assessed as reduction in cell viability at 100 to 5000 nM measured after 3 days by cell proliferation assay; format: functional, cell-based; conditions: dose 100-5000 nM, time 3.0 day
[21] = target: T1, Histone-lysine N-methyltransferase EZH2 (Homo sapiens, UniProt Q15910)
[22] = test system: DB; assay: Antiproliferative activity against human DB cells assessed as reduction in cell viability at 3000 nM measured after 8 days by cell proliferation assay; format: functional, cell-based; conditions: time 8.0 day
[23] = target: RAC-alpha serine/threonine-protein kinase (Homo sapiens) (UniProt P31749); assay: Inhibition of human catalytic domain N-terminal GST tagged AKT1 (104 to 480 end residues) expressed in baculovirus expression system using crosstide as substrate at 10 uM by mobility shift assay relative to control
[24] = target: Muscarinic acetylcholine receptor M5 (Homo sapiens) (UniProt P08912); assay: Inhibition of M5 receptor (unknown origin) at 10 uM by radioligand binding assay relative to control
[25] = target: T1, Histone-lysine N-methyltransferase EZH2; assay: Inhibition of EZH2 methyltransferase activity (unknown origin) in PRC2 complex using 3H-SAM as substrate by Scintillation proximity assay
[26] = test system: MCF7; assay: Effect on EZH2 level in human MCF7 cells at 5 uM incubated for 3 days by immunofluorescence staining based analysis; format: functional, cell-based; conditions: time 3.0 day
[27] = target: Histone-lysine N-methyltransferase, H3 lysine-79 specific (Homo sapiens, UniProt Q8TEK3); assay: Inhibition of DOT1L (unknown origin) using [3H-SAM] as substrate incubated for 1 hr by scintillation proximity assay
[28] = target: Muscarinic acetylcholine receptor M1 (Homo sapiens) (UniProt P11229); assay: Inhibition of M1 receptor (unknown origin) at 10 uM by radioligand binding assay relative to control
[29] = target: 5-hydroxytryptamine receptor 1E (Homo sapiens) (UniProt P28566); assay: Inhibition of 5-HT1E receptor (unknown origin) at 10 uM by radioligand binding assay relative to control
[30] = target: Tyrosine-protein kinase Lck (Homo sapiens) (UniProt P06239); assay: Inhibition of full length human N-terminal GST tagged LCK (1 to 509 end residues) expressed in baculovirus expression system using Srctide as substrate at 10 uM by mobility shift assay relative to control
[31] = target: 5-hydroxytryptamine receptor 2B (Homo sapiens) (UniProt P41595); assay: Inhibition of 5-HT2B receptor (unknown origin) at 10 uM by radioligand binding assay relative to control
[32] = target: Tyrosine-protein kinase SYK (Homo sapiens) (UniProt P43405); assay: Inhibition of full length human N-terminal GST tagged SYK (1 to […] end residues) expressed in baculovirus expression system using Blk/lyntide as substrate at 10 uM by mobility shift assay relative to control

CCCc1cc(C)[nH]c(=O)c1CNC(=O)c1cc(-c2ccc(N3CCN(C(C)C)CC3)nc2)cc2c1cnn2C(C)C
inhibition [1]: 16% | inhibition [2]: 39% | Ki [3]: 0.3 µM | inhibition [4]: 10% | inhibition [5]: 41% | inhibition [6]: -4% | inhibition [7]: -7% | inhibition [8]: 34% | IC50 [9]: > 100 µM | inhibition [10]: -2% | Activity [11]: Non-Toxic | inhibition [12]: 21% | inhibition [13]: 21% | inhibition [14]: 11% | inhibition [15]: 57% | inhibition [16]: 22% | inhibition [17]: -1% | inhibition [18]: 13% | inhibition [19]: 1% | Activity [20]: inactive | Ki [21]: 0.0046 µM | Activity [22]: Active | inhibition [23]: -6% | inhibition [24]: 9% | IC50 [25]: < 0.01 µM | Activity [26]: inactive | IC50 [27]: > 100 µM | inhibition [28]: 19% | inhibition [29]: 2% | inhibition [30]: 0% | inhibition [31]: -9% | inhibition [32]: -6%
